The record followed here is US20150253330A1, “PRE-SELECTION OF SUBJECTS FOR THERAPEUTIC TREATMENT WITH AN HSP90 INHIBITOR BASED ON HYPOXIC STATUS” (Synta Pharmaceuticals Corp., priority 2012, published 2015).

The test system of one series is angiogenesis. Kind of series: Egg CAM and matrigel plug angiogenesis assays. On the set-up: species or system chicken. The conditions noted are these: all three models. The protocol:
The conditioned medium was collected from control and treated cells. 100 μl of conditioned medium, either control or treated, was injected into fertilized chicken eggs. Eggs were incubated at 37° C. for 15 days, then dissected and the membrane was photographed.
It's postulated that functional inhibition of Hsp90 by ganetespib can inhibit angiogenesis and growth in vitro and in vivo models of pancreatic cancer. PANC-1 and HPAC cell lines were treated with vehicle or G (50 nM) for 24 h and lysates were analyzed by Western blot. Egg CAM and matrigel plug assays were performed to quantify the effects of ganetespib on angiogenesis. Efficacy of ganetespib (100 mg/kg) was assessed in mice bearing HPAC and ASPC-1 xenograft.
Mia-PaCa2, PANC-1 and HPAC cells were treated with Ganetespib (50 nM) or control for 24 hours, the conditioned medium was harvested and 100 μl of conditioned or control medium was injected into fertilized chicken eggs (Avian Vaccine Service center, North Franklin, Conn.). Eggs were incubated at 37° C. for 15 days and dissected. Chorioallantoic membrane was photographed.

The next series relates to locally advanced or MBC. Put plainly: Phase 2 trial in metastatic breast cancer (MBC). The class given is in vivo, human. How it is done: Patients with locally advanced or MBC were treated with single agent of ganetespib at 200 mg/m^2 on a cycle of once weekly for 3 weeks, one week off, on a 28 day cycle. The primary endpoint of the trial was overall response rate using RECIST 1.1. Patients with HER2+ breast cancer were required to have received prior therapy with trastuzumab. No more than 3 lines of chemotherapy in the metastatic setting were permitted, but there was no limit on prior lines of hormone therapy. Patients were evaluated for response after 2 cycles. The trial used a Simon two-stage design requiring at least 3 responses among the first 22 patients, to allow expansion to a total of 40 patients. A total of 22 patients were treated with a median age of 51 years (38 to 70) and the following subtypes: 13 HER2+ (10 ER+/HER2+; 3 ER−/HER2+), 6 ER+/HER2−, and 3 ER−/PR−/HER2− (TNBC).

As for `CC(C)c1cc(-c2nnc(O)n2-c2ccc3c(ccn3C)c2)c(O)cc1O` [ganetespib], the “Angiogenesis compared to vehicle” value in the series with angiogenesis is “reduced angiogenesis”. For the same compound, the “CBR (CR + PR + SD > 6 months)” value with locally advanced or MBC (ER+/HER2− (N = 6)) is on record as 0; in the series with locally advanced or MBC (HER2+ (N = 13)) it was 2 (9%); in the series with locally advanced or MBC (TNBC (N = 3)), 0; in the series with locally advanced or MBC (Total (N = 22)), 2 (9%). The CR in the series with locally advanced or MBC (ER+/HER2− (N = 6)), with locally advanced or MBC (HER2+ (N = 13)), in the series with locally advanced or MBC (TNBC (N = 3)) and with locally advanced or MBC (Total (N = 22)) was 0 in each case. For the same compound, the ORR is 0 with locally advanced or MBC (ER+/HER2− (N = 6)); 2 (9%) with locally advanced or MBC (HER2+ (N = 13)); 0 with locally advanced or MBC (TNBC (N = 3)); 2 (9%) in the series with locally advanced or MBC (Total (N = 22), 200 mg/m^2 once weekly for 3 weeks, one week off). Besides, the PR is reported as 0 with locally advanced or MBC (ER+/HER2− (N = 6)), 2 with locally advanced or MBC (HER2+ (N = 13)), 0 with locally advanced or MBC (TNBC (N = 3)) and 2 (9%) in the series with locally advanced or MBC (Total (N = 22)). The Tolerability entry with locally advanced or MBC (single agent, expected GI toxicity mild in nature and manageable) was “well tolerated”.
